According to paper PMC12455130, “Multifunctional molecular agent for tau-targeted combinational therapy of Alzheimer’s disease” (The Journal of Biological Chemistry, 2025):

How the values were obtained:
SK-N-SH cells [1] = assay: Intracellular ROS measurement (DCFH, flow cytometry and CLSM); assay type: cell-based, human; conditions: 15 μM R3, 3.8 μM Cu2+, 10 μM compound; for ROS in SK-N-SH cells generated by R3–Cu2+ complex (flow cytometry): 24 h
Experimental: The flow cytometry and confocal laser scanning microscopy (CLSM) were used to show the intracellular ROS production. […] Consequently, the reductive phenolic hydroxyl groups might be a key factor for scavenging ROS triggered by R3–Cu^2+ complex.
SK-N-SH cells were seeded on a 12-well plate at a density of 1 × 10^5/well and incubated at 37 °C for 24 h, followed by treating with 15 μM R3 in the presence or the absence of 3.8 μM Cu^2+ in FBS-free DMEM. Two hours later, 10 μM 4GA/2GA/4ME/GA was added to the medium, respectively. After 24 h, the culture medium was removed, and 10 μM DCFH diacetate in FBS-free DMEM was added and incubated for 45 min at 37 °C. Samples were washed three times with PBS, and 4% polyformaldehyde was added and fixed at room temperature for 20 min. Cells were observed under a CLSM. For quantitative analysis, cells were harvested and washed three times with ice-cold PBS and resuspended in PBS. The fluorescence intensity of DCFH was analyzed by flow cytometry (CytoFLEX LX).

SK-N-SH cells [2] = assay: Cell rescue assay (CCK-8) against R3 aggregates / Cu2+; assay type: cell-based, human; conditions: R3, heparin, Cu2+ preincubated with compound (20 μM), diluted 1:1, 24 h
Experimental: In this regard, we next evaluated the detoxification effect of 4GA and 2GA in the SK-N-SH cells treated with different components with possible cytotoxicity, including R3, R3 aggregates (R3 + heparin), Cu^2+, 4GA, 2GA, GA, and 4ME in indicated conditions, as shown in Figure 6B.
For cell rescue assay, 30 μM R3, 7.5 μM heparin was incubated in FBS–DMEM containing 7.5 μM Cu^2+ and different compounds (20 μM) at 37 °C for 1 h. Then, 500 μl of preincubated R3 solution was diluted with 500 μl fresh FBS–DMEM, and the mixture was used to replace the old medium after the cell attached to the 96-well plate. After cultured for 24 h, CCK-8 was used to measure the cell viability.

R3 fibrils [3] = target: T1, R3 fibrils (Homo sapiens, UniProt P10636); assay: TEM of Cu2+-promoted R3 fibrils; assay type: biochemical; conditions: R3 15 μM, Cu2+ 3.8 μM, heparin 3.8 μM, compound 10 μM, Hepes pH 7.4
T1 construct: R3 (^306VQIVYK PVDLSK VTSKCG SLGNIH HKPGGG Q^336) and rabbit anti-tau antibody were purchased from MuJin; purchased MuJin
T1 sequence (P10636 623-653 limits assumed): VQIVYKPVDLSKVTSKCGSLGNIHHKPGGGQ
Experimental: However, the influence of 4ME or GA on Cu^2+-promoted R3 aggregation was small, because these compounds could only suppress Cu^2+ promotion effect; their effect on R3 self-aggregation was almost negligible.
(§1) For detecting the inhibitory efficiency of inhibitors, 15 μM R3, 3.8 μM heparin, and 4GA/2GA/4ME/GA (0, 10, and 40 μM) in 50 mM Tris–HCl buffer (pH 7.4) was incubated at 37 °C for 3 h, respectively. For exploring the effect of Cu^2+ on R3 aggregation, 15 μM R3, 3.8 μM heparin was mixed in the presence or the absence of 3.8 μM Cu^2+ in 50 mM Hepes buffer (pH 7.4). Then, 10 μM 4GA/2GA/4ME/GA was added to the solution. After 3 h incubation, 10 μl of each solution was applied on a carbon support membrane, followed by 10 μl of 2% uranyl acetate, and dried at room temperature. The operation was carried out on transmission electron microscope (JEM-2100, provieded by JEOL).

SK-N-SH cells [4] = assay: Cell viability assay (CCK-8); assay type: cell-based; conditions: for SK-N-SH cells dead: 80 μM, 24 h incubation; for cytotoxicity (cell viability): SK-N-SH, concentration up to 40 μM
Experimental: However, we still face challenges to improve their therapeutic effects while reducing neurotoxicity. Therefore, a systematic investigation on the cytotoxicity of our new synthetic compounds was carried out. Herein, human neuroblastoma cells (SK-N-SH) were utilized for standard cell viability assay (Cell Counting Kit-8 [CCK-8] assay).
The human neuroblastoma cell (SK-N-SH) was obtained from the Chinese Academy of Sciences stem cell bank. Cells were maintained in Dulbecco’s modified Eagle’s medium (DMEM) supplemented with 10% fetal bovine serum (FBS), 100 U/ml penicillin G, and 100 μg/ml streptomycin at 37 °C in a humidified atmosphere containing 5% CO2.
Cells were plated in 96-well plate at a density of 1 × 10^4 in 100 μl medium per well for 24 h. Then, the FBS-free medium containing the tested compounds at different concentrations was used to replace the old medium. After 24 h incubation, 100 μl of FBS-free DMEM containing 10% CCK-8 was added into each well to replace the old medium. After 2 h incubation, the absorbance at 450 nm was measured by SpectraMax iD3 (Molecular Devices).

R3 fibrils [5] = target: T1, R3 fibrils; assay: TEM of heparin-induced R3 fibrils; assay type: biochemical
Experimental: To further confirm the inhibitory efficiency of 4GA and 2GA on R3 fibril formation, the morphology of heparin-induced R3 aggregates at different conditions was characterized by transmission electron microscopy (TEM) (Fig. 4C). After incubation, the mature fibrils of R3 were interweaved and serried in the absence of 4GA or 2GA (0 μM).
as §1

Solubility = assay type: physicochemical; conditions: for solubility in polar organic solvent: DMSO
From the text: (§2) Therefore, in the following experiments, they were first dissolved in DMSO and further diluted in an excess of buffer. […] Logically, 1,4,7,10-tetramethyl-1,4,7,10-tetraazacyclododecane (4ME) and GA (compound structure was shown in Fig. S1) are considered as the precursor of 4GA and 2GA and therefore used as a comparative study to confirm whether the ancillary ligand had any effect on aggregation.

[6] = Stability in Hepes by UV-visible absorption; assay type: physicochemical; conditions: Hepes 50 mM, pH 7.4, 0.2% DMSO; 10 μM, 37 °C; 72 h
Experimental: as §2
Figure S8. The stability of 4GA (A) and 2GA (B) in HEPES (50 mM, pH 7.4, 0.2% DMSO) verified by UV-vis absorption spectroscopy. All sample concentrations were 10 μM and kept at 37℃ in atmosphere.

Structure (SMILES)	ROS in SK-N-SH cells generated by R3–Cu2+ complex (flow cytometry) (SK-N-SH cells [1])	rescue of cell viability against R3 aggregates or Cu2+ (SK-N-SH cells [2])	morphology of Cu2+-promoted R3 fibrils (TEM) (R3 fibrils [3])	cytotoxicity (survival rate of SK-N-SH cells) (SK-N-SH cells [4]; dose-dependent test, 24 h)	R3 fibril morphology (TEM) (R3 fibrils [5]; even at high concentrations)	CLSM green fluorescence (intracellular ROS) (SK-N-SH cells [1])	R3 fibril morphology (TEM) (R3 fibrils [5]; 10 μM inhibitor)	solubility in water (Solubility)	solubility in polar organic solvent (Solubility)	stability in buffer [6]	SK-N-SH cells dead (SK-N-SH cells [4]) [%]	cytotoxicity (cell viability) (SK-N-SH cells [4]; 24 h)
CN1CCN(C)CCN(C)CCN(C)CC1 [4ME, 1,4,7,10-tetramethyl-1,4,7,10-tetraazacyclododecane, reference compound]	did not decrease	only a limited rescue ability	small	negligible								
O=C(O)c1cc(O)c(O)c(O)c1 [GA, gallic acid, reference compound]	appreciably decreased, almost to the control level	only a limited rescue ability	small		could hardly change the number and length of R3 fibrils	almost disappeared						
CN1CCN(C(=O)c2cc(O)c(O)c(O)c2)CCN(C)CCN(C(=O)c2cc(O)c(O)c(O)c2)CC1 [2GA, (4,10-dimethyl-1,4,7,10-tetraazacyclododecane-1,7-diyl)bis((3,4,5-trihydroxyphenyl)methanone)]	appreciably decreased, almost to the control level	dramatically elevates the cell viability	the resulting filaments become sparse and small			almost disappeared	smaller numbers of short R3 filaments	slightly soluble in water	soluble in polar organic solvent such as dimethyl sulfoxide (DMSO)	remain stable at 72 h	34.2	insignificant cytotoxicity
O=C(c1cc(O)c(O)c(O)c1)N1CCN(C(=O)c2cc(O)c(O)c(O)c2)CCN(C(=O)c2cc(O)c(O)c(O)c2)CCN(C(=O)c2cc(O)c(O)c(O)c2)CC1 [4GA, (1,4,7,10-tetraazacyclododecane-1,4,7,10-tetrayl)tetrakis((3,4,5-trihydroxyphenyl)methanone)]	appreciably decreased, almost to the control level	dramatically elevates the cell viability	the resulting filaments become sparse and small			almost disappeared	smaller numbers of short R3 filaments	slightly soluble in water	soluble in polar organic solvent such as dimethyl sulfoxide (DMSO)	remain stable at 72 h	40.5	insignificant cytotoxicity
